Measured values from US20210290732A1, “GLP-1R and GCGR Agonists, Formulations, and Methods of Use” (Spitfire Pharma LLC, priority 2020, published 2021).
Values joined by “and” are separate entries in the source; they are usually repeats but may differ in a detail not shown here. Identical values can stand only once. Like-named read-outs stand apart in the source and are kept apart here. Each block holds one compound with its values, some of them ahead of it.

How the values were obtained:
[1] = target: GCGR (Homo sapiens, UniProt P47871); test: cAMP receptor activation assay, human GCGR cloned into CHO cells (DiscoverX LeadHunter / cAMP Hunter); format: cell-based; set-up: host or cells: CHO-K1; settings: for EC50: cAMP, CHO cells
[2] = target: T1, human GLP-1R (Homo sapiens, UniProt P43220); test: cAMP receptor activation assay, human GLP-1R cloned into CHO cells (DiscoverX LeadHunter / cAMP Hunter); format: cell-based; settings: for Selectivity Ratio GLP-1R vs GCGR: SR = GCGR EC50/GLP-1 EC50, 0.1% BSA
T1 construct: host or cells: CHO-K1

[3] = pharmacokinetics in Gottingen minipigs (cassette sc dosing, 20 nmol/kg); format: in vivo, Gottingen minipig; settings: 20 nmol/kg sc; for plasma levels compared to liraglutide: analogue 2 at 4 h, 4 at 2-12 h, 5 at 2, 12, 24 h
Excerpt: This study uses a cassette style dosing, to minimize large animal usage, but with injection subcutaneously at separate sites to preclude each compound's influencing uptake of another compound. A total of two male Gottingen minipigs were assigned to study. The animals were pair housed in pens on raised floor caging. The animals weighed between approximately 11-15 kg at transfer and approximately 5-8 months of age. The same animals were to be used for multiple phases, following a minimum 1-week washout period. To facilitate dosing and to ensure animal safety during the dosing procedure, animals were sedated with Telazol (IM, 4-6 mg/kg) prior to dosing. Dosing was subcutaneous via bolus injection between the skin and underlying layers of tissue in the ventral region of the animal. A total of […] sites were used for each phase with different compounds dosed at each of the 4 sites. Compounds are formulated in saline containing 0.2% BSA […] at pH 3.5. Each stock solution was diluted with normal saline (pH 7.4) to the required final conc and sterile filtered. Dosing is at 20 nmol/kg. Blood samples were collected pre-dose and at 2, 4, 6, 8, 12, 24, 36, 48, 72 and 96-hours post-dose. At each blood collection time point a 1 mL sample is taken from the jugular vein into K2EDTA tubes on ice before processing to plasma by centrifugation. The plasma samples containing the 4 test compounds were sent to Climax Labs for separation and quantitation by LC-MS/MS as noted below (2.5.3).
Analysis was carried out at Climax Laboratories (San Jose, Calif.) on an API-4000 Mass Spectrometer, ESI positive, MRM scan. Samples were loaded on a Shimadzu HPLC/CTC Autosampler with an ACE C4 column (2.1×50 mm, 5 μm). Elution was by gradient from aqueous 0.5% formic acid, 5 mM NH4OAc to 0.5% formic acid in CH3CN/H2O (9:1). […] After transfer to a 96 well plate, a 40 μL sample was injected and the individual compound peaks were quantitated with standard curves. […] The quantitation limit is 1-2 ng/mL, depending on analog structure.

[4] = CMC of Polysorbate 80 in F58 buffer pH 7.7 with added ALT-801 by surface tensiometry; format: physicochemical
Excerpt: CMC shifts are simply calculated as CMC in the presence of the ALT-801 less the CMC for the surfactant alone in solution.

[5] = tested on: DIO-NASH mice; test: DIO-NASH mouse study, 12 weeks of QD dosing; format: in vivo
Description: All mice entering the experiment have been pre-biopsied, stratified based on liver biopsy (only animals with fibrosis 1 or above and steatosis 2 or above are included) animals stratified into groups based on Col1a1 immunostaining. […] Body weight (BW) was measured daily for the entire study period, food intake daily for the first 14 days then weekly until study end. Terminal plasma was measured for ALT/AST/TG/TC levels. Terminal liver removal and sampling was carried out for pre to post NAFLD Activity Score (NAS; HE staining) including Fibrosis Stage (Picrosirius red, PSR). Terminal histology was carried out for steatosis, Col1a1 and galectin-3 quantitation. Terminal liver workup included TG+TC (extraction and measurement). Terminal liver biopsies were set up in: 1) 4% PFA for histology, 2) fresh frozen liver for biochemistry, 3) fresh frozen liver for RNA extraction and RNAseq.

[6] = 0.1% BSA containing buffers, read-out: pEC50 (SE) huGCGR (converted)
[7] = cAMP, CHO cells, 0.1% BSA containing buffers, read-out: pEC50 (SE) hu GLP-1 (converted)

T1 sequence (P43220 24-463): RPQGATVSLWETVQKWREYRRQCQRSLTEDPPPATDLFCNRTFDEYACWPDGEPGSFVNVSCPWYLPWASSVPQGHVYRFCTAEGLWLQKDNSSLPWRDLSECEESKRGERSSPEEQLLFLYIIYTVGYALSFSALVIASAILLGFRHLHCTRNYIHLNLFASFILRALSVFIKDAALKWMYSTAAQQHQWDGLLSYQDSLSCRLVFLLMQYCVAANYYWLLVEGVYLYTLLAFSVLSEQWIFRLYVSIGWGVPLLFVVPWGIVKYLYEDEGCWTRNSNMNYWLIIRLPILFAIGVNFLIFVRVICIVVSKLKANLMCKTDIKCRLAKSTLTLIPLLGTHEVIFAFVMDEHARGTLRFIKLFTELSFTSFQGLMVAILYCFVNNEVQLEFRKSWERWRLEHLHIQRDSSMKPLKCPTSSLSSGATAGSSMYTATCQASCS
GCGR, sequence (P47871 26-477): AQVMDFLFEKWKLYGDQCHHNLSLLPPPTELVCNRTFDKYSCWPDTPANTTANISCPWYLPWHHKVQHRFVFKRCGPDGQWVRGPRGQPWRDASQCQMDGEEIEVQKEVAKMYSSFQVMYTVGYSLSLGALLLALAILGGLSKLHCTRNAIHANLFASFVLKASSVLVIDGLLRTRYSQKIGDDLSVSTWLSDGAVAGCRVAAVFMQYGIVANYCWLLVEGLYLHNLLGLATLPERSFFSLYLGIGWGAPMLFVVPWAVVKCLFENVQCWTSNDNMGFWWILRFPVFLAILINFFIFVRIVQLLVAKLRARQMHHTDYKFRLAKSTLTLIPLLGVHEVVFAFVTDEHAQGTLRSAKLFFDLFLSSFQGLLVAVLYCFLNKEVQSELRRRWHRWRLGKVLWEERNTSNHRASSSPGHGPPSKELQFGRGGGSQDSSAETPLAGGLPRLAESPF

Compound: CCCCCCCCCCO[C@@H]1O[C@H](C(=O)NCCCC[C@H](NC(=O)[C@@H](NC(=O)[C@H](Cc2ccccc2)NC(=O)[C@H](CCC(=O)O)NC(=O)[C@@H]2CCCCNC(=O)CC[C@H](NC(=O)[C@H](CC(=O)O)NC(=O)[C@H](CC(C)C)NC(=O)[C@H](Cc3ccc(O)cc3)NC(=O)[C@H](CCCCN)NC(=O)[C@H](CO)NC(=O)[C@H](Cc3ccc(O)cc3)NC(=O)[C@H](CC(=O)O)NC(=O)[C@H](CO)NC(=O)[C@@H](NC(=O)[C@H](Cc3ccccc3)NC(=O)[C@@H](NC(=O)CNC(=O)[C@H](CCC(N)=O)NC(=O)C(C)(C)NC(=O)[C@@H](N)Cc3c[nH]cn3)[C@@H](C)O)[C@@H](C)O)C(=O)N[C@@H](CCC(N)=O)C(=O)N[C@@H](C)C(=O)N[C@@H](C)C(=O)N2)[C@@H](C)CC)C(=O)N[C@@H](Cc2c[nH]c3ccccc23)C(=O)N[C@@H](CC(C)C)C(=O)N[C@@H](CC(C)C)C(=O)N[C@@H](CCC(N)=O)C(=O)N[C@H](C(N)=O)[C@@H](C)O)[C@@H](O)[C@H](O)[C@H]1O [analogue 2]
EC50 [1, 6]: 0.02 nM | Selectivity Ratio GLP-1R vs GCGR [2]: 2 | EC50 [2, 7]: 0.0126 nM | plasma levels compared to liraglutide [3]: Significantly higher plasma levels

Compound: Polysorbate 80
CMC Shift Due to ALT-801 ([4]; 5.0 mg/ml ALT-801): 5.16 mg/mL | Extent of Interaction mg PS80/mg ALT-801 ([4]; 5.0 mg/ml ALT-801): 1.03 mg/mg | Extent of Interaction moles PS80/molesALT-801 ([4]; 5.0 mg/ml ALT-801): 3.05 mole/mole | CMC Shift Due to ALT-801 ([4]; 10.0 mg/ml ALT-801): 10.32 mg/mL | Extent of Interaction mg PS80/mg ALT-801 ([4]; 10.0 mg/ml ALT-801): 1.03 mg/mg | Extent of Interaction moles PS80/molesALT-801 ([4]; 10.0 mg/ml ALT-801): 3.05 mole/mole | Polysorbate 80 CMC Value 5.0 mg/ml ALT-801, Average ([4]; F58 buffer pH 7.7, 5.0 mg/ml ALT-801): 5.34 mg/mL | Polysorbate 80 CMC Value 5.0 mg/ml ALT-801 ([4]; F58 buffer pH 7.7, 5.0 mg/ml ALT-801, single test): 5.35 mg/mL and 5.33 mg/mL | Polysorbate 80 CMC Value 10.0 mg/ml ALT-801, Average ([4]; F58 buffer pH 7.7, 10.0 mg/ml ALT-801): 10.50 mg/mL | Polysorbate 80 CMC Value 10.0 mg/ml ALT-801 ([4]; F58 buffer pH 7.7, 10.0 mg/ml ALT-801, single test): 10.49 mg/mL and 10.50 mg/mL | Polysorbate 80 CMC Valve No ALT-801, Average ([4]; F58 buffer pH 7.7, no ALT-801): 0.183 mg/mL | Polysorbate 80 CMC Valve No ALT-801 ([4]; F58 buffer pH 7.7, no ALT-801, single test): 0.182 mg/mL and 0.183 mg/mL | Extent of Interaction mg PS80/mg ALT-801 ([4]; […] ALT-801): 1.03 mg/mg | Extent of Interaction moles PS80/molesALT-801 ([4]; […] ALT-801): 3.05 mole/mole

Compound: CSc1ccc(C(=O)/C=C/c2cc(C)c(OC(C)(C)C(=O)O)c(C)c2)cc1 [elafibranor]
body weight compared to NASH control (p≤0.001) ([5]; ALT-801 5 and 10 nmol/kg, elafibranor 78 μmol/kg, semaglutide 10 nmol/kg): statistically significantly decreased body weight | NAFLD activity score (NAS) reduction compared to the start of treatment ([5]; NASH mice, 78 μmol/kg PO QD, 12 weeks): 42% | expression of cell death genes vs NASH vehicle control ([5]; NASH mice, liver RNAseq): No statistical differences | expression of genes affecting fat usage and transport vs NASH vehicle control ([5]; NASH mice, liver RNAseq): significantly lower GPAT2 (p<0.001) and GPAT4 (p<0.001) | expression of liver inflammation genes (FOSB, JUN, TLR4) vs NASH vehicle control ([5]; NASH mice, liver RNAseq): No statistically significant changes | number of differentially expressed genes (liver RNA sequencing) ([5]; NASH mice, high dose ALT-801, elafibranor, semaglutide): ~5800

Compound: CCCCCCCCCCCCCCO[C@@H]1O[C@H](C(=O)NCCCC[C@H](N)C(=O)NCCCC[C@H](NC(=O)[C@@H](NC(=O)[C@H](Cc2ccccc2)NC(=O)[C@H](CCC(=O)O)NC(=O)[C@@H]2CCCCNC(=O)CC[C@H](NC(=O)[C@H](CC(=O)O)NC(=O)[C@H](CC(C)C)NC(=O)[C@H](Cc3ccc(O)cc3)NC(=O)[C@H](CCCCN)NC(=O)[C@H](CO)NC(=O)[C@H](Cc3ccc(O)cc3)NC(=O)[C@H](CC(=O)O)NC(=O)[C@H](CO)NC(=O)[C@@H](NC(=O)[C@H](Cc3ccccc3)NC(=O)[C@@H](NC(=O)CNC(=O)[C@H](CCC(N)=O)NC(=O)C(C)(C)NC(=O)[C@@H](N)Cc3c[nH]cn3)[C@@H](C)O)[C@@H](C)O)C(=O)N[C@@H](CCC(N)=O)C(=O)N[C@@H](C)C(=O)N[C@@H](C)C(=O)N2)[C@@H](C)CC)C(=O)N[C@@H](Cc2c[nH]c3ccccc23)C(=O)N[C@@H](CC(C)C)C(=O)N[C@@H](CC(C)C)C(=O)N[C@@H](CCC(N)=O)C(=O)N[C@H](C(N)=O)[C@@H](C)O)[C@@H](O)[C@H](O)[C@H]1O [analogue 13]
Selectivity Ratio (SR=GCGR EC50/GLP-1 EC50) [1]: 5 | Selectivity Ratio GLP-1R vs GCGR [2]: 5 | EC50 [2, 7]: 0.0372 nM

Now from value to compound:

EC50 [1, 6]: 0.0302 nM | Selectivity Ratio GLP-1R vs GCGR [2]: 2 | EC50 [2, 7]: 0.0158 nM | Cmax and PK profiles [3]: optimal | plasma levels compared to liraglutide [3]: Significantly higher plasma levels
Compound: CCCCCCCCCCCCCCO[C@@H]1O[C@H](C(=O)NCCCC[C@H](NC(=O)[C@@H](NC(=O)[C@H](Cc2ccccc2)NC(=O)[C@H](CCC(=O)O)NC(=O)[C@@H]2CCCCNC(=O)CC[C@H](NC(=O)[C@H](CC(=O)O)NC(=O)[C@H](CC(C)C)NC(=O)[C@H](Cc3ccc(O)cc3)NC(=O)[C@H](CCCCN)NC(=O)[C@H](CO)NC(=O)[C@H](Cc3ccc(O)cc3)NC(=O)[C@H](CC(=O)O)NC(=O)[C@H](CO)NC(=O)[C@@H](NC(=O)[C@H](Cc3ccccc3)NC(=O)[C@@H](NC(=O)CNC(=O)[C@H](CCC(N)=O)NC(=O)C(C)(C)NC(=O)[C@@H](N)Cc3c[nH]cn3)[C@@H](C)O)[C@@H](C)O)C(=O)N[C@@H](CCC(N)=O)C(=O)N[C@@H](C)C(=O)N[C@@H](C)C(=O)N2)[C@@H](C)CC)C(=O)N[C@@H](Cc2c[nH]c3ccccc23)C(=O)N[C@@H](CC(C)C)C(=O)N[C@@H](CC(C)C)C(=O)N[C@@H](CCC(N)=O)C(=O)N[C@H](C(N)=O)[C@@H](C)O)[C@@H](O)[C@H](O)[C@H]1O [analogue 4]

EC50 ([1]; 0.1% OVA containing buffers, read-out: EC50 hGCGR): 0.086 nM | EC50 ([2]; 0.1% BSA in assay buffer, read-out: EC50 GLP-1R): 1.27 nM
Compound: CC[C@H](C)[C@H](NC(=O)[C@H](Cc1ccccc1)NC(=O)[C@H](CCC(=O)O)NC(=O)[C@@H]1CCCCNC(=O)CC[C@H](NC(=O)[C@H](CC(=O)O)NC(=O)[C@H](CC(C)C)NC(=O)[C@H](Cc2ccc(O)cc2)NC(=O)[C@H](CCCCN)NC(=O)[C@H](CO)NC(=O)[C@H](Cc2ccc(O)cc2)NC(=O)[C@H](CC(=O)O)NC(=O)[C@H](CO)NC(=O)[C@@H](NC(=O)[C@H](Cc2ccccc2)NC(=O)[C@@H](NC(=O)CNC(=O)[C@H](CCC(N)=O)NC(=O)C(C)(C)NC(=O)[C@@H](N)Cc2c[nH]cn2)[C@@H](C)O)[C@@H](C)O)C(=O)N[C@@H](CCC(N)=O)C(=O)N[C@@H](C)C(=O)N[C@@H](C)C(=O)N1)C(=O)N[C@@H](CCCCNC(=O)[C@H]1O[C@@H](OCCCCCCCCCCCCCCCCCC(=O)O)[C@H](O)[C@@H](O)[C@@H]1O)C(=O)N[C@@H](Cc1c[nH]c2ccccc12)C(=O)N[C@@H](CC(C)C)C(=O)N[C@@H](CC(C)C)C(=O)N[C@@H](CCC(N)=O)C(=O)N[C@H](C(N)=O)[C@@H](C)O [analogue 16]
